According to ChEMBL document CHEMBL1201862, “PubChem BioAssay data set” (2004):
Activity calls are given as the source filed them.

How the values were obtained:
[1] = molecular target: DNA dC->dU-editing enzyme APOBEC-3A (Homo sapiens, UniProt P31941); assay: Dose Response confirmation of small molecule APOBEC3A DNA Deaminase Inhibitors via a fluorescence-based single-stranded DNA deaminase assay. [Related pubchem assays (depositor defined):AID493011, AID493024]; type: functional
[2] = molecular target: DNA dC->dU-editing enzyme APOBEC-3G (Homo sapiens, UniProt Q9HC16); type: functional;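 also: Dose-response counterscreen measuring inhibition of APOBEC3G DNA deaminase activity, run while confirming APOBEC3A inhibitors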
Sequence of DNA dC->dU-editing enzyme APOBEC-3G (Q9HC16 whole entry): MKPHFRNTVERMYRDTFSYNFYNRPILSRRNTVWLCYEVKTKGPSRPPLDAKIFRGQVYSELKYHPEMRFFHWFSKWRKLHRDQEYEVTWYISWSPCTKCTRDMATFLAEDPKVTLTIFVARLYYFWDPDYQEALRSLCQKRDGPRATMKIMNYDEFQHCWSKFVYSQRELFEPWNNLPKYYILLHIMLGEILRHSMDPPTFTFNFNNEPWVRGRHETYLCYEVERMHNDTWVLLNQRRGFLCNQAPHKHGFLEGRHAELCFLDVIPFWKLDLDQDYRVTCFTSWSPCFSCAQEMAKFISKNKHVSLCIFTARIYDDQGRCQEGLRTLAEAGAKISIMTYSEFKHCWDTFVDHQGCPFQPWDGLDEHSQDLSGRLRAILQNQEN

Protein skinhead-1 = molecular target: T1, Protein skinhead-1 (Caenorhabditis elegans, UniProt P34707); type: functional
T1 sequence (P34707 whole entry): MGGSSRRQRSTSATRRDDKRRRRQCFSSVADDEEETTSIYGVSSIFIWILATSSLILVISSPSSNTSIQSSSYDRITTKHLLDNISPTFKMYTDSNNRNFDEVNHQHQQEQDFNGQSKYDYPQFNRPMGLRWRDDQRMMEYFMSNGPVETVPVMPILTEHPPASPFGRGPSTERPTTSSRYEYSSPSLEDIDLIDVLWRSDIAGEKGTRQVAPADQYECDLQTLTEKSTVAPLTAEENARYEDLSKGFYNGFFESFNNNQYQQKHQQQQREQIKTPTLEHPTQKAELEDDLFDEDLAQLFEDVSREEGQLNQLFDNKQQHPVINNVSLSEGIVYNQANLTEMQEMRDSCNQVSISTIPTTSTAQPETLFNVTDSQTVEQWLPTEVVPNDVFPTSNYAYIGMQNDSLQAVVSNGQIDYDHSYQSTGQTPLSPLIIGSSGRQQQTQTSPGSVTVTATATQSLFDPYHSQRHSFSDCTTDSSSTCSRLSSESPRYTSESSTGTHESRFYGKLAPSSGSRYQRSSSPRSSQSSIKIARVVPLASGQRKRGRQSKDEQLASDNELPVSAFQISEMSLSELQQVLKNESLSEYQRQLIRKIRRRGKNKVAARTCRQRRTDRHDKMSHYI

Cytochrome P450 2C19 = Cytochrome P450 2C19 (Homo sapiens, UniProt P33261); assay: Cytochrome panel assay with activity outcomes. Panel member name: p450-cyp2c19 Compounds with AC50 equal or less than 10 uM are considered active; type: functional; settings: read-out: AC50
[3] = molecular target: T2, High affinity choline transporter 1 (Homo sapiens, UniProt Q9GZV3); assay: human choline transporter blockers, potency – cell-based, 5-point CRC, membrane potential dye, dose response (AID 504840); type: functional
T2 sequence (Q9GZV3 whole entry): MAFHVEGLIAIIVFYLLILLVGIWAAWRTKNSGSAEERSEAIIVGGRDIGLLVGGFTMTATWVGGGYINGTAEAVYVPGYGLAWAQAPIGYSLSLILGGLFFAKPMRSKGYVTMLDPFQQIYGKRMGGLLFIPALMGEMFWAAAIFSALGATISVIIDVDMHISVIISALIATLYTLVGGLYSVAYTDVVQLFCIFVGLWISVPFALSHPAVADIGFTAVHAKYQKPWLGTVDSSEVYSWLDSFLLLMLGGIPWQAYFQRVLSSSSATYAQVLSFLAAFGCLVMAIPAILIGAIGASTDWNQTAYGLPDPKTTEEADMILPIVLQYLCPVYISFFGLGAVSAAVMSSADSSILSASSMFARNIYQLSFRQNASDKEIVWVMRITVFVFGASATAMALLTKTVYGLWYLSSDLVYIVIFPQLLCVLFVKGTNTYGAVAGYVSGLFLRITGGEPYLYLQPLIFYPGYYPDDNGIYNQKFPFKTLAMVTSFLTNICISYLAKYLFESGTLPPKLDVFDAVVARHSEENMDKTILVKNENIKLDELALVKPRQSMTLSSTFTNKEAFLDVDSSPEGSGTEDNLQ

Cytochrome P450 2D6 = Cytochrome P450 2D6 (Homo sapiens, UniProt P10635);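 also: CYP2D6 member of a cytochrome P450 panel assay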
Sequence of Cytochrome P450 2D6 (P10635 whole entry): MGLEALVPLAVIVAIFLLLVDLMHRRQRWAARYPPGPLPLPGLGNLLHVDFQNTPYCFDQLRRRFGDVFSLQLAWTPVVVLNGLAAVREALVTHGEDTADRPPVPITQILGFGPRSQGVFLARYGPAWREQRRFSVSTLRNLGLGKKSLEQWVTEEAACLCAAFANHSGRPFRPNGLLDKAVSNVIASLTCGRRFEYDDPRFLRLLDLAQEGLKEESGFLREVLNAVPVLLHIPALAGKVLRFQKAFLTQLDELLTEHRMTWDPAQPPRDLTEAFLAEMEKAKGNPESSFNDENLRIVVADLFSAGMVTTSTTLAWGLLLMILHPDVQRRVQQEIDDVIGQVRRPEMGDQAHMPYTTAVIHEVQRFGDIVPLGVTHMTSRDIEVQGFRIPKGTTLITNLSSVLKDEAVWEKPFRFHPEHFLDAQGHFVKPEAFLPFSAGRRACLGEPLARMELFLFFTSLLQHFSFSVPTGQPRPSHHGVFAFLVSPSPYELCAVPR

Cytochrome P450 1A2 = molecular target: T3, Cytochrome P450 1A2 (Homo sapiens, UniProt P05177);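 also: PubChem cytochrome P450 panel assay, CYP1A2 panel member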
T3 sequence (P05177 whole entry): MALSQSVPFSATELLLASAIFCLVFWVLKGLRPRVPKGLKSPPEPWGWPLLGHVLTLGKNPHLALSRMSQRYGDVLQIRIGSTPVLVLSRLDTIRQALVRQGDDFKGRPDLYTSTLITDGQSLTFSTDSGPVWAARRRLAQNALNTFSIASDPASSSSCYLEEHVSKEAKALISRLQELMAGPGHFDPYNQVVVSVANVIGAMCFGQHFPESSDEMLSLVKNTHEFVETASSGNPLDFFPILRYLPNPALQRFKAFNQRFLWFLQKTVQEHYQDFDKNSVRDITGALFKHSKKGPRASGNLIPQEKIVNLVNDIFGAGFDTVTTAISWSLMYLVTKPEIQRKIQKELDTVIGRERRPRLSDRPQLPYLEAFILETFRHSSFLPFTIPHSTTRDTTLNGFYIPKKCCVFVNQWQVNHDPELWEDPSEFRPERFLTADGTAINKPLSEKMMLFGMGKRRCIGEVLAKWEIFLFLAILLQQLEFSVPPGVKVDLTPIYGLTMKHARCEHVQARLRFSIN

Cytochrome P450 3A4 = Cytochrome P450 3A4 (Homo sapiens, UniProt P08684);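 also: CYP3A4 tested as one member of a cytochrome P450 panel screen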
Cytochrome P450 2C9 = Cytochrome P450 2C9 (Homo sapiens, UniProt P11712)
[4] = molecular target: Peroxisome proliferator-activated receptor gamma/Nuclear receptor coactivator 1 (Homo sapiens, UniProt P37231); assay: (§1) TR-FRET dose response biochemical High Throughput Screening assay for agonists of the steroid receptor coactivator 1 (SRC-1) recruitment by the peroxisome proliferator-activated receptor gamma (PPAR gamma): non-selective agonists. [Related pubchem assays (depositor defined):AID1300, AID1808, AID504735, AID631]; type: protein assay
Sequence of Peroxisome proliferator-activated receptor gamma/Nuclear receptor coactivator 1 (P37231 whole entry): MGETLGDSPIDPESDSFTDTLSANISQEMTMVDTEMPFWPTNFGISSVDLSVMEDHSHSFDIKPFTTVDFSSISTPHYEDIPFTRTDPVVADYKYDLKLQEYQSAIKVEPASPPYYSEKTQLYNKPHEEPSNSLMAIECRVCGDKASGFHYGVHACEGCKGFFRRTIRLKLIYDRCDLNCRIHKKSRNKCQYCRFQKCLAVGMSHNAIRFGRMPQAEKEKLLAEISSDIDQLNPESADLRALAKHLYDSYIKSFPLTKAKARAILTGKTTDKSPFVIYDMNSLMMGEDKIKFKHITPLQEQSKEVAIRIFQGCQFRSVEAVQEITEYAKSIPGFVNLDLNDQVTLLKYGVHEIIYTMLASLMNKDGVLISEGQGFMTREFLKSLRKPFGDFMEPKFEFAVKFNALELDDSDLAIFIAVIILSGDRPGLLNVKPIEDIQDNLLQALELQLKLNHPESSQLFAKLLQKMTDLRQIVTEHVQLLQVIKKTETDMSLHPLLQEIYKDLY
Sequence of Peroxisome proliferator-activated receptor gamma/Nuclear receptor coactivator 1 (Q15788 whole entry, further chain): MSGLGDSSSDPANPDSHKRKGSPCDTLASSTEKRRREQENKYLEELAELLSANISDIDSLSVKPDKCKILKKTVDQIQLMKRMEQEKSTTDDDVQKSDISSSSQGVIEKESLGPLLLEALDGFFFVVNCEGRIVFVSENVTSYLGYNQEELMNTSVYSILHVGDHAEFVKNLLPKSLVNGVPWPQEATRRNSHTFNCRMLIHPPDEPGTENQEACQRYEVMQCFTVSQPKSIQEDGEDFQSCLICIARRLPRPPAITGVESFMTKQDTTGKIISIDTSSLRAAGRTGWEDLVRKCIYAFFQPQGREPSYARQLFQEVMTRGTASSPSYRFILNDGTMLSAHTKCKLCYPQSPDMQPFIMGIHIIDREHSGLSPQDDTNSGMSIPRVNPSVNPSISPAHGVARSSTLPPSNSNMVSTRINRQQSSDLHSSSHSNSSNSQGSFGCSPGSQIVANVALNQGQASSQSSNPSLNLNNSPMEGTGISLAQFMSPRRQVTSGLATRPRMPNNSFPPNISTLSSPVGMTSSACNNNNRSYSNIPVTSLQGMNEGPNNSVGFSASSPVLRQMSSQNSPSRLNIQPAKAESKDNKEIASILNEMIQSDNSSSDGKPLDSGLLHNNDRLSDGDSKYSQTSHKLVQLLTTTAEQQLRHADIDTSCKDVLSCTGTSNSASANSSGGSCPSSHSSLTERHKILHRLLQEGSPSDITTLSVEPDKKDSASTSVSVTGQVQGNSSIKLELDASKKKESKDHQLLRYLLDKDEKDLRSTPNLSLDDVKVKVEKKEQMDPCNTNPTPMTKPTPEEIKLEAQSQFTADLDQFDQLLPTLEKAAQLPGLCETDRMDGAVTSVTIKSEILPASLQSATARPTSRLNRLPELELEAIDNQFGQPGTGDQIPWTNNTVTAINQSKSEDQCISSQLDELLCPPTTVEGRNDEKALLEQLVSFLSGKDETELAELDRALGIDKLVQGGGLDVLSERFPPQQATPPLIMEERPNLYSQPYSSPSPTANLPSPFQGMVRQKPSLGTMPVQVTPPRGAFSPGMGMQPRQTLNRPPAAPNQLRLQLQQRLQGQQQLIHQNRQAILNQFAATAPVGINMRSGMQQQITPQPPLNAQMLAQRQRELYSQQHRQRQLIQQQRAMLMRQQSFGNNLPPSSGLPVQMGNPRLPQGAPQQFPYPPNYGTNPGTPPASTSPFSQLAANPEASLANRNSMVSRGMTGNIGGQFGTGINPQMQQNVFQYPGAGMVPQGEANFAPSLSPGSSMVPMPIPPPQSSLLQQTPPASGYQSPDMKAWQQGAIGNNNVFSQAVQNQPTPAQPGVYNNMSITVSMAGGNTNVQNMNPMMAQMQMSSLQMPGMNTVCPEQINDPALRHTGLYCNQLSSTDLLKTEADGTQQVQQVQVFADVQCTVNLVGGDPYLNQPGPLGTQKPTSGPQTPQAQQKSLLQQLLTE

[5] = molecular target: Peroxisome proliferator-activated receptor gamma/Nuclear receptor coactivator 3 (Homo sapiens, UniProt P37231); assay: as §1, with “3 (SRC-3)” for “1 (SRC-1)”, “assays: 1301 (Confirmation screen.), 1048 (Primary screen.)]” for “assays (depositor defined):AID1300, AID1808, AID504735, AID631]”; type: functional
[6] = molecular target: Peroxisome proliferator-activated receptor gamma/Nuclear receptor coactivator 2 (Homo sapiens, UniProt P37231); assay: TR-FRET dose response biochemical High Throughput Screening assay for agonists of the steroid receptor coactivator 2 (SRC-2) recruitment by the peroxisome proliferator-activated receptor gamma (PPAR gamma): non-selective agonists. [Related pubchem assays: 1297, 1032 ]; type: functional
Sequence of Peroxisome proliferator-activated receptor gamma/Nuclear receptor coactivator 2 (P37231 whole entry): as the sequence (P37231 whole entry) above
Sequence of Peroxisome proliferator-activated receptor gamma/Nuclear receptor coactivator 2 (Q15596 whole entry, further chain): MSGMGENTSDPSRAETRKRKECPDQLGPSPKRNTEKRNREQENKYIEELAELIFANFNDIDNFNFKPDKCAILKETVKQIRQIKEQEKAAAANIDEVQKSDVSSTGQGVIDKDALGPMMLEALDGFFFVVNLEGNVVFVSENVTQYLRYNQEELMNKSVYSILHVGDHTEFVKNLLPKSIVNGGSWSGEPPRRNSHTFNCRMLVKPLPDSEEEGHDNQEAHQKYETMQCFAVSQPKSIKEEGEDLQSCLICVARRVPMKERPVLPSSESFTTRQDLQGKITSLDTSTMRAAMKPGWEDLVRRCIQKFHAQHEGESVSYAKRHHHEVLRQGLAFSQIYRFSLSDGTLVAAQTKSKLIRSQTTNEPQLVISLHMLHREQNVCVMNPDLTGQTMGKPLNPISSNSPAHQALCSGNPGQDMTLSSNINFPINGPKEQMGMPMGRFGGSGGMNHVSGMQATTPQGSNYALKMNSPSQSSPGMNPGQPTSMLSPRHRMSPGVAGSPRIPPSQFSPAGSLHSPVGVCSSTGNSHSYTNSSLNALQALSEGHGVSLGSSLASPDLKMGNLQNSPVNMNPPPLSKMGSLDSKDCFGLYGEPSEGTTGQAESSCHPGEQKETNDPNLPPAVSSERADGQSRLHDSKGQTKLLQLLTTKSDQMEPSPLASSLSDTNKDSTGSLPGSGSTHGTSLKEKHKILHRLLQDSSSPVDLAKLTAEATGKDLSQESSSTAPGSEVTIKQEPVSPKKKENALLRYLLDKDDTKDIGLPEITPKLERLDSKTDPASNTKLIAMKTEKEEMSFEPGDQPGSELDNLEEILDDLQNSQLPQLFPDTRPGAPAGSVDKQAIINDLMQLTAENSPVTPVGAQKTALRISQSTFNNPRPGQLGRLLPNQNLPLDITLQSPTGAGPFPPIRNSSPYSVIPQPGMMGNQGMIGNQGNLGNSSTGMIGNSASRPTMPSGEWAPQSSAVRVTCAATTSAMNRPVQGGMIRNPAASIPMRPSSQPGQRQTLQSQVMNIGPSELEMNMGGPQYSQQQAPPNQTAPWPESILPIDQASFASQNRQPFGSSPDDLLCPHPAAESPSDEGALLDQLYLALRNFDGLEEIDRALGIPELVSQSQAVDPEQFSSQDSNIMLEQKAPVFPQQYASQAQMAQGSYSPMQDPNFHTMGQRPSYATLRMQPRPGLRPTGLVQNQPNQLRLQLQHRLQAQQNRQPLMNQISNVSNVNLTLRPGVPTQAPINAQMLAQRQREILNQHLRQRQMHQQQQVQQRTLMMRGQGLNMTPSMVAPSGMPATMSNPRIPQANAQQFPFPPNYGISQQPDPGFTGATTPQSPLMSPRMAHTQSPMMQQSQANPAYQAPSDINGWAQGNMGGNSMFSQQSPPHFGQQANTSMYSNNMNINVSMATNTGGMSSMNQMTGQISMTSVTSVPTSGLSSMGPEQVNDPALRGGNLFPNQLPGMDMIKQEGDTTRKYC

cells = type: functional
[7] = molecular target: T4, Short transient receptor potential channel 4 (Mus musculus, UniProt Q9QUQ5); assay: block of DAMGO-driven TRPC4 calcium entry – cell-based, HEK293 TRPC4/mu-opioid, Fluo-4 calcium, dose response (AID 434942); type: functional;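 also: potency of inhibitors blocking the TRPC4 calcium response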
T4 sequence (Q9QUQ5 whole entry): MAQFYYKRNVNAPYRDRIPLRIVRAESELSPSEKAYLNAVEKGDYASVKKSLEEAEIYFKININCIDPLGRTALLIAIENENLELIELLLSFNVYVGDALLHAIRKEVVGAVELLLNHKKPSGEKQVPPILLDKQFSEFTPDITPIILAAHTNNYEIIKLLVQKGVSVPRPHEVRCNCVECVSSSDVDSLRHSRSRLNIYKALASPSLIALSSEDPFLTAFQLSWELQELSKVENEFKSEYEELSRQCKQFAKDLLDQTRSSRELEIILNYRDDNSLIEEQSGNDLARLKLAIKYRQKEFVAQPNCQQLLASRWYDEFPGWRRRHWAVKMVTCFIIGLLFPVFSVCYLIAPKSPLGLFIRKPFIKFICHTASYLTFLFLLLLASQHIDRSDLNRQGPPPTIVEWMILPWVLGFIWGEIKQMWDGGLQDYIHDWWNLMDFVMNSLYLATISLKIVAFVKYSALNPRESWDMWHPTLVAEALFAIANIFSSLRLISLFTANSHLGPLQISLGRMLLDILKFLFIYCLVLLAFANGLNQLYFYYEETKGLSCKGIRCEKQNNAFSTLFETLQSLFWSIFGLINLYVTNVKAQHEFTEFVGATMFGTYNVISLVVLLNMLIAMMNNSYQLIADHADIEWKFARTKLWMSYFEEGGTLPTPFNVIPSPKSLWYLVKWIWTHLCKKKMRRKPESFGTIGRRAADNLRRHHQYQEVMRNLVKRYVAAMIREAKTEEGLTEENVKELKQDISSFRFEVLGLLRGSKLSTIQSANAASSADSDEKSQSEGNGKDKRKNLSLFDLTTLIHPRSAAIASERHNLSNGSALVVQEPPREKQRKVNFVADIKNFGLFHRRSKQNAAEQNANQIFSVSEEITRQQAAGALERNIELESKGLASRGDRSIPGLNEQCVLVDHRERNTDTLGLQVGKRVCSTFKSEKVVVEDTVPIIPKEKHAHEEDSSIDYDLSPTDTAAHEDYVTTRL

Prothrombin = Prothrombin (Homo sapiens, UniProt P00734); assay: Thrombin 1536 HTS Dose Response Confirmation. [Related pubchem assays: 1046 (Thrombin 1536 HTS; hits were confirmed in this assay)]; type: functional

Sequence of DNA dC->dU-editing enzyme APOBEC-3A (P31941 whole entry): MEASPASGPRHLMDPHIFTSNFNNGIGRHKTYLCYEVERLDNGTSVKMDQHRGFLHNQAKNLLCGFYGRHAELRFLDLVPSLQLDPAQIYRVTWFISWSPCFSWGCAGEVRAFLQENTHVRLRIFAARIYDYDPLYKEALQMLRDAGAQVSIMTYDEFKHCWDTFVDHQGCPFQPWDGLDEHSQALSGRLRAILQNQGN

Compound	IC50 [1]	IC50 [2]	EC50 [4]	EC50 [5]	EC50 [6]	other results
O=[N+]([O-])c1ccc2nc(N3CCCC3)sc2c1	5.31 µM (active)	4.86 µM (active)	–	–	–	IC50 (Protein skinhead-1): 39.1 µM (active)
CCCCn1nc2cc(C(=O)NC3CCCc4ccccc43)ccc2c1OCC (stereo unspecified)	–	–	–	–	–	AC50 (Cytochrome P450 2C19): 39.8 µM (inconclusive); IC50 [3]: 12.9 µM (active); AC50 (Cytochrome P450 2D6): 22.4 µM (inconclusive); AC50 (Cytochrome P450 1A2): 39.8 µM (inconclusive); AC50 (Cytochrome P450 3A4): 35.5 µM (inconclusive); AC50 (Cytochrome P450 2C9): 22.4 µM (inconclusive)
Sc1ncnc2sc(-c3ccccc3)cc12	–	–	8.82 µM (active)	> 79.4 µM (not active)	34.7 µM (not active)	IC50 (cells): 49.3 µM (active)
N#Cc1ccc(-c2ccc3c(c2)OCO3)nc1SCC(=O)OCc1ccccc1	–	–	5.85 µM (active)	20.4 µM (not active)	7.23 µM (active)	–
CN(C)c1cc[n+](CC(=O)Nc2ccc(OC(F)F)cc2)cc1	2.44 µM (active)	4.21 µM (active)	–	–	–	–
CSCCNCc1cn(-c2ccc(F)cc2F)nc1-c1ccccc1C	–	–	–	–	–	EC50 [7]: 5.96 µM (active)
N=c1n(CCO)c2ccccc2n1Cc1ccccc1	–	–	–	–	–	IC50 (Prothrombin): > 50 µM (not active); EC50 [7]: 5.31 µM (active)
Cn1c(=O)cc(SCC(=O)N2CCC3(CC2)OCCO3)c2ccc(Cl)cc21	–	–	> 79.4 µM (inactive)	> 79.4 µM (not active)	> 79.4 µM (not active)	–
C[N+]1(C)CCN(c2ccccc2)CC1 [DIMETHYLPHENYLPIPERAZINIUM IODIDE]	1.93 µM (active)	2.62 µM (active)	–	–	–	–
